Experimental findings from patent US5393775A, “Benzopyran compounds” (Adir et Compagnie, priority 1992, dated 1995) are described below.

Test [1] relates to lipoxygenase of human polynuclear cells (LTB4). Kind of test: inhibition of the synthesis of LTB4 (lipoxygenase) in human polynuclear cells activated by A23187. Type of test: cell-based. The note with it: for inhibition at 10 µM: at 10^-5 M; for IC50: read-out: INHIBITION OF THE SYNTHESIS OF LTB4, CON[…] BY 50% (IC50 in M), read-out: INHIBITION OF THE SYNTHESIS OF LTB4, CONCENTRATION INHIBITING SYNTHESIS BY 50% (IC50 in M). On the procedure:
The inhibitory activity of the compounds of formula (I) used according to the invention on the synthesis of eicosanoids is measured on washed human polynuclear cells, in the presence or in the absence of the compound to be tested, after activation of these cells by calcium (calcium ionophore A23187).
The production of the main eicosanoid, resulting from lipoxygenase, produced by human polynuclear cells: leukotriene B4 (LTB4), is measured by a radioimmunological test.

Test [2] relates to rat brain homogenates (spontaneous peroxidation of lipids). The test can be described thus: spontaneous lipid peroxidation on rat brain homogenates. Type of test: biochemical. The note with it: at 10^-5 M, 60 minutes at 37° C. Here is the method:
(§1) The action of the compounds of the invention, which are capable of trapping .OH radicals, was studied, on the one hand, on the spontaneous peroxidation of lipids and, on the other hand, on the peroxidation induced by the Fe^2+ /ascorbate (10 μm/250 μm) system on rat brain homogenates.
(§2) During the measurement of the spontaneous lipid peroxidation, the rat brain homogenates are placed in the presence or in the absence of the compounds to be tested for 60 minutes at 37° C. The reaction is halted at 0° C. and the quantitative determination of malondialdehyde is carried out using thiobarbituric acid by the method of Yagi, K., (1976), Biochem. Med., 15, 212-216. Lipid peroxidation is determined by the substances reacting with thiobarbituric acid expressed in nanomoles of malondialdehyde.
(§3) The concentrations of the tested compounds which inhibit by 50 % the peroxidation of the substrate or the antioxidizing activity of the compounds of the invention at a concentration of 10^-5 M are calculated.

The test system of test [3] is rat brain homogenates (peroxidation induced by the Fe^2+ /ascorbate system). The test can be described thus: lipid peroxidation induced by Fe^2+/ascorbate on rat brain homogenates. In kind it is biochemical. The note with it: at 10^-5 M, 60 minutes at 37° C. On the procedure: as §1, §2
During the measurement of the induced lipid peroxidation, the methodology is identical to the above with the exception of the addition to the homogenate of the radical inductive system: Fe^2+ /ascorbate. The reference substances are probucol and vitamin E.
as §3

As a reminder, the inhibition is the relative decrease from the control value, in per cent. On to `Cc1cc(C)c(NC(=S)C2(C)CCc3c(C)c(O)c(C)c(C)c3O2)cc1C` (stereo not drawn) [Example 4, N-(2,4,5-trimethylphenyl)-6-hydroxy-3,4-dihydro-2,5,7,8-tetramethyl-2H-1-benzopyran-2-thiocarboxamide], for which, in test [1], the inhibition at 10 µM is greater than 99% and the IC50 came to 500 nM. Also, the “INHIBITION OF THE PEROXIDATION WITH RESPECT TO THE CONTROL, SPONTANEOUS PEROXIDATION” value in test [2] was 98. The “INHIBITION OF THE PEROXIDATION WITH RESPECT TO THE CONTROL, INDUCED PEROXIDATION” value in test [3] worked out at 100.
For the compound `Cc1cc(C)nc(NC(=S)C2(C)CCc3c(C)c(O)c(C)c(C)c3O2)c1` (stereo not drawn) [Example 6, N-(4,6-dimethylpyrid-2-yl)-6-hydroxy-3,4-dihydro-2,5,7,8-tetramethyl-2H-1-benzopyran-2-thiocarboxamide], in test [1], the inhibition at 10 µM is greater than 99% and the IC50 is 600 nM.
The matching figures for `COc1ccc(CN2CCN(C(=S)C3(C)CCc4c(C)c(O)c(C)c(C)c4O3)CC2)c(OC)c1OC` (stereo not drawn) [Example 94, 1-[(3,4-dihydro-6-hydroxy-2,5,7,8-tetramethyl-2H-1-benzopyran-2-yl)thiocarbonyl]-4-(2,3,4-trimethoxybenzyl)piperazine]: greater than 99% and 300 nM.
The matching figures for `Cc1c(C)c2c(c(C)c1O)CCC(C)(C(=S)N1CCN(c3ccccc3)CC1)O2` (stereo not drawn) [Example 84, 1-[(3,4-dihydro-6-hydroxy-2,5,7,8-tetramethyl-2H-1-benzopyran-2-yl)thiocarbonyl]-4-phenylpiperezine]: greater than 99% and 300 nM.
Regarding `Cc1c(C)c2c(c(C)c1O)CCC(C)(C(=S)N1CCN(C(O)(c3ccccc3)c3ccccc3)CC1)O2` (stereo not drawn) [Example 98, 1-[(3,4-dihydro-6-hydroxy-2,5,7,8-tetramethyl-2H-1-benzopyran-2-yl)thiocarbonyl]-4-(1-hydroxy-1,1-diphenylmethyl)piperazine], in test [1], the inhibition at 10 µM is greater than 99% and the IC50 came out at 1300 nM.
For `Cc1c(C)c2c(c(C)c1O)CCC(C)(C(=S)N1CCN(c3ccc(Cl)cc3)CC1)O2` (stereo not drawn) [Example 92, 1-[(3,4-dihydro-6-hydroxy-2,5,7,8-tetramethyl-2H-1-benzopyran-2-yl)thiocarbonyl]-4-(4-chlorophenyl)piperazine], in that order: greater than 99% and 200 nM.
The matching figures for `Cc1c(C)c2c(c(C)c1O)CCC(C)(C(=S)N1CCN(c3ccccn3)CC1)O2` (stereo not drawn) [Example 86, 1-[(3,4-dihydro-6-hydroxy-2,5,7,8-tetramethyl-2H-1-benzopyran-2-yl)thiocarbonyl]-4-(2-pyridyl)piperazine]: greater than 99% and 200 nM.
On to `Cc1c(C)c2c(c(C)c1O)CCC(C)(C(=S)Nc1ccccc1)O2` (stereo not drawn) [Example 2, N-phenyl-6-hydroxy-3,4-dihydro-2,5,7,8-tetramethyl-2H-1-benzopyran-2-thiocarboxamide], for which, in test [1], the inhibition at 10 µM is greater than 99% and the IC50 was determined as 300 nM. Further, the “INHIBITION OF THE PEROXIDATION WITH RESPECT TO THE CONTROL, SPONTANEOUS PEROXIDATION” value in test [2] worked out at 100. In addition, the “INHIBITION OF THE PEROXIDATION WITH RESPECT TO THE CONTROL, INDUCED PEROXIDATION” value in test [3] is listed as 100.
As to `COc1cc(NC(=S)C2(C)CCc3c(C)c(O)c(C)c(C)c3O2)cc(OC)c1OC` (stereo not drawn) [Example 8, N-(3,4,5-trimethoxyphenyl)-6-hydroxy-3,4-dihydro-2,5,7,8-tetramethyl-2H-1-benzopyran-2-thiocarboxamide], the inhibition at 10 µM in test [1] is greater than 99%.
In the case of `Cc1c(C)c2c(c(C)c1O)CCC(C)(C(=S)N1CCN(c3ccc(F)cc3)CC1)O2` (stereo not drawn) [Example 88, 1-[(3,4-dihydro-6-hydroxy-2,5,7,8-tetramethyl-2H-1-benzopyran-2-yl)thiocarbonyl]-4-(4-fluorophenyl)piperazine], in test [1], the inhibition at 10 µM was greater than 99% and the IC50 is 100 nM.
As for `Cc1cccc(C)c1NC(=S)C1(C)CCc2c(C)c(O)c(C)c(C)c2O1` (stereo not drawn) [Example 26, N-(2,6-dimethylphenyl)-6-hydroxy-3,4-dihydro-2,5,7,8-tetramethyl-2H-1-benzopyran-2-thiocarboxamide], in test [1], the inhibition at 10 µM was greater than 99% and the IC50 came to 500 nM. Further, the “INHIBITION OF THE PEROXIDATION WITH RESPECT TO THE CONTROL, SPONTANEOUS PEROXIDATION” value in test [2] is 99. Further, the “INHIBITION OF THE PEROXIDATION WITH RESPECT TO THE CONTROL, INDUCED PEROXIDATION” value in test [3] is given as 100.
